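These data come from cells grown in 96-well plates and exposed to compound for 48 hours at five concentrations. TGI: total growth inhibition.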
How the values were obtained:
Assay in all cases: inhibition of tumour cell growth, NCI panel, 48 h
HOP-62 NSCLC = test system: HOP-62 NSCLC
M14 melanoma = test system: M14 melanoma
NCI-H460 lung = test system: NCI-H460 lung
SF-295 CNS = test system: SF-295 CNS
SNB-75 CNS = test system: SNB-75 CNS
HS 578T breast = test system: HS 578T breast
SR leukemia = test system: SR leukemia
LOX IMVI melanoma = test system: LOX IMVI melanoma
SK-MEL-2 melanoma = test system: SK-MEL-2 melanoma
OVCAR-5 ovarian = test system: OVCAR-5 ovarian

| Structure (SMILES) | TGI (HOP-62 NSCLC) [µM] | TGI (M14 melanoma) [µM] | TGI (NCI-H460 lung) [µM] | TGI (SF-295 CNS) [µM] | TGI (SNB-75 CNS) [µM] | TGI (HS 578T breast) [µM] | TGI (SR leukemia) [µM] | TGI (LOX IMVI melanoma) [µM] | TGI (SK-MEL-2 melanoma) [µM] | TGI (OVCAR-5 ovarian) [µM] |
| --- | --- | --- | --- | --- | --- | --- | --- | --- | --- | --- |
| O=C(O)c1ccccc1CC1Cc2ccccc2C1=O (stereo unspecified) | > 100 | > 100 | > 100 | > 100 | > 100 | > 100 | > 100 | > 100 | > 100 | > 100 |
| CCOC(=O)c1nc2c(nc1C(=O)OCC)C(=O)c1ccccc1C2=O | 3.78 | 1.55 | 3.73 | 1.55 | 2.12 | 0.766 | 0.68 | – | 1.5 | 2.24 |
| O=C1NCCN1/N=C/c1c(Cl)n(-c2ccccc2)c2ccccc12 | > 100 | 36.8 | – | > 100 | 55 | 43.8 | 85.7 | 38.9 | 66.4 | > 100 |
| COc1ccc(C2=N/C(=C\c3ccccc3)C(=O)O2)cc1 | > 100 | > 100 | > 100 | > 100 | > 100 | > 100 | 57.5 | – | > 100 | > 100 |
| OCCc1ccsc1-c1sc(-c2cc(CCO)c(-c3sccc3CCO)s2)cc1CCO | 27.6 | 23.7 | 32.5 | 30.3 | – | – | > 100 | 72.3 | 29.5 | 32.4 |
| CN(C)C1(N(C)C)Oc2c(c(=O)n(C)c(=O)n2C)C(c2ccc(Br)cc2)C1(F)F (stereo unspecified) | > 100 | > 100 | > 100 | > 100 | > 100 | – | – | > 100 | > 100 | > 100 |
| CCOC(=O)c1cn2c(nc1=O)N[C@H]1CCCC[C@@H]12 | – | > 100 | > 100 | > 100 | > 100 | > 100 | – | > 100 | > 100 | > 100 |
| CCN(CC)/C(SCc1ccccc1)=C(\C(Cl)=C(Cl)Cl)[N+](=O)[O-] | 45.6 | 29.3 | 55.1 | > 100 | – | – | 73.6 | 32.7 | 45.5 | 41.2 |
| COP(=O)(/C=C/c1cc(C(=O)OCc2ccccc2)n(S(=O)(=O)c2ccccc2)c1)OC | > 100 | > 100 | > 100 | > 100 | > 100 | > 100 | – | > 100 | > 100 | > 100 |
| CCN(CC)CCN(C(=Nc1ccccc1)N1CCOCC1)c1ccccc1 | > 100 | > 100 | > 100 | > 100 | > 100 | > 100 | > 100 | > 100 | > 100 | – |
| Cc1ccc(-c2[nH]c(=O)n(C3OC(CO)C(O)C(O)C3O)c(=O)c2C#N)cc1 (stereo unspecified) | > 100 | > 100 | > 100 | > 100 | > 100 | > 100 | > 100 | – | > 100 | > 100 |
| CC1CCC(C(=O)O)(C(Br)C(=O)O)CC1 (stereo unspecified) | > 100 | > 100 | > 100 | > 100 | > 100 | – | > 100 | > 100 | > 100 | > 100 |
| O=C(O)CCC(=O)OC1N=C(c2ccccc2Cl)c2cc([N+](=O)[O-])ccc2NC1=O (stereo unspecified) | > 100 | > 100 | > 100 | > 100 | > 100 | > 100 | – | > 100 | > 100 | > 100 |
| CC(=O)Nc1nc(C#N)[nH]c1C#N | > 100 | > 100 | > 100 | > 100 | > 100 | > 100 | – | > 100 | > 100 | > 100 |
| N#CC12C(=O)N=C(N)C1(C#N)C(c1ccco1)NC1=C2CCCC1 (stereo unspecified) | > 100 | > 100 | > 100 | > 100 | – | > 100 | > 100 | > 100 | > 100 | > 100 |
| CN(C)c1ccc(S(=O)Nc2ccccc2)cc1 (stereo unspecified) | > 100 | > 100 | > 100 | > 100 | – | > 100 | > 100 | > 100 | 89.1 | > 100 |
| CS(=O)(=O)OCC(CCl)(CCl)CCl | – | > 100 | > 100 | > 100 | > 100 | > 100 | > 100 | > 100 | – | – |
| COc1cccc(CCCNC(=O)Cc2cc(OC)c(OC)cc2CO)c1 | > 100 | > 100 | > 100 | – | > 100 | > 100 | > 100 | > 100 | > 100 | > 100 |
| COc1ccc2c(c1)OCC1Cc3ccccc3OC21 (stereo unspecified) | > 100 | > 100 | – | > 100 | > 100 | – | > 100 | > 100 | > 100 | > 100 |
| CCCSCC(P(=O)(O)O)P(=O)(O)O | > 100 | – | > 100 | > 100 | > 100 | – | – | > 100 | > 100 | > 100 |
| Cc1cc(N(CCOS(C)(=O)=O)CCOS(C)(=O)=O)ccc1C=O | – | 30.5 | 6.35 | > 100 | – | 94 | – | 58.7 | 72.9 | 33.8 |
| O=c1[nH]c(=O)n(C2OC(CO)C(O)C2O)c2nc(-c3ccc(-c4ccccc4)cc3)cnc12 (stereo unspecified) | > 100 | > 100 | > 100 | > 100 | > 100 | > 100 | – | > 100 | > 100 | > 100 |
| NS(=O)(=O)c1cc2c(cc1Cl)NC(CCC(=O)O)=NS2(=O)=O | > 100 | > 100 | > 100 | > 100 | > 100 | > 100 | – | > 100 | > 100 | > 100 |
| COc1cc(C2c3cc4c(cc3OC(NN)C2C)OCO4)cc(OC)c1OC (stereo unspecified) | 8.55 | > 100 | > 100 | > 22.7 | > 75.2 | > 100 | – | > 100 | > 100 | > 100 |

| Structure (SMILES) | TGI (HOP-62 NSCLC) [µM] | TGI (M14 melanoma) [µM] | TGI (NCI-H460 lung) [µM] | TGI (SF-295 CNS) [µM] | TGI (SNB-75 CNS) [µM] | TGI (HS 578T breast) [µM] | TGI (SR leukemia) [µM] | TGI (LOX IMVI melanoma) [µM] | TGI (SK-MEL-2 melanoma) [µM] | TGI (OVCAR-5 ovarian) [µM] |
| --- | --- | --- | --- | --- | --- | --- | --- | --- | --- | --- |
| CC1=C[C@@H]2Cc3nc4cc(Cl)ccc4c(N)c3[C@H](C1)C2 | 24 | 18.1 | 23.1 | 20 | 17.9 | 9.75 | – | 22.3 | 29.7 | 17.3 |
| O=[N+]([O-])C(/C=C(\Cl)n1nnc2ccccc21)=C(/Cl)n1nnc2ccccc21 | > 100 | > 100 | > 100 | > 100 | – | > 100 | > 100 | > 100 | > 100 | > 100 |
| Oc1ccc([I+]c2ccccc2)cc1O | > 100 | – | > 100 | > 100 | > 100 | > 100 | > 100 | > 100 | – | > 100 |
| O=C1c2ccccc2-c2c1c(-c1ccc(F)cc1)nc1ccc3ccccc3c21 | > 100 | > 100 | > 100 | > 100 | > 100 | > 100 | – | > 100 | > 100 | > 100 |
| Cc1c(S(=O)(=O)c2ccccc2)c(N)n(CCN(C)C)c1C | – | > 100 | > 100 | > 100 | > 100 | > 100 | > 100 | – | > 100 | > 100 |
| CCN(CC)CCn1c(=O)c2cccnc2n2c3c(=O)n(C)c(=O)n(C)c3nc12 | > 100 | > 100 | > 100 | > 100 | > 100 | > 100 | > 100 | – | > 100 | > 100 |
| CSc1nsc(-c2ccccc2)[s+]1 | > 100 | > 100 | > 100 | – | > 100 | – | > 100 | – | > 100 | – |
| COc1ccc2c(C)cc(=O)oc2c1OC | > 100 | > 100 | – | > 100 | > 100 | > 100 | > 100 | > 100 | > 100 | > 100 |
| CC1=NN(c2cccc(Cl)c2)C2(C1=C/C=C/c1ccccc1)C(Cl)C(=O)N2c1nc2ccccc2s1 (stereo unspecified) | > 100 | > 91.2 | > 100 | > 100 | – | 49 | 9.54 | 57 | 40.1 | > 71.2 |
| CC1=NS(=O)(=O)c2ccccc2N1 | > 100 | > 100 | > 100 | > 100 | > 100 | – | > 100 | > 100 | > 100 | > 100 |
| Cc1cc(C(=O)CCCCOc2ccc(C3=NCCO3)cc2)c(C)n1C | > 100 | > 100 | – | > 100 | > 100 | > 100 | 54.9 | – | > 100 | > 100 |
| CCOC(=O)c1c(C)nc2c3ccccc3c(C#N)c(C)n12 | 70.7 | – | > 100 | > 100 | 75.8 | > 100 | > 100 | > 100 | > 100 | > 100 |
| CC1=NN(c2cccc(Cl)c2)C2(SCC(=O)N2c2nc3ccccc3s2)/C1=C\c1ccccc1O (stereo unspecified) | 54.7 | 55.4 | > 100 | > 100 | – | 65.5 | 37.5 | > 100 | 44.2 | > 100 |
| CCNC(=O)Cc1nc2c(N)ncnc2n1C1OC(CO)C(O)C1O (stereo unspecified) | > 100 | > 100 | > 100 | > 100 | – | > 100 | > 100 | > 100 | > 100 | – |
| COc1cc(NS(C)(=O)=O)ccc1Nc1cc(C)[nH]c2ccc3nccc3c12 | > 100 | > 100 | > 100 | > 100 | – | > 100 | – | > 100 | > 100 | > 100 |
| CCCCC(C(=O)NCCNC(=O)CCC(=O)N(C)O)C(=O)NCCNC(=O)CCC(=O)N(C)O | > 100 | > 100 | > 100 | > 100 | > 100 | – | > 100 | > 100 | > 100 | > 100 |
| COc1cc(/C=C/C(=O)CC(=O)/C=C/c2ccc(OC(=O)CCCCC3CCSS3)c(OC)c2)ccc1OC(=O)CCCCC1CCSS1 (stereo unspecified) | > 100 | > 100 | > 100 | > 100 | > 100 | > 100 | – | > 100 | > 100 | > 100 |
| N#Cc1c(-c2ccccc2)/c(=C\Nc2ccc(F)cc2)c(=O)n2c1nc1ccccc12 | 10.8 | 40.4 | > 100 | > 100 | > 100 | – | – | > 100 | > 100 | > 100 |
| CCOC(=O)c1ccc(NCC#CCN2CCOCC2)cc1 | > 100 | > 100 | – | – | – | > 100 | > 100 | > 100 | > 100 | > 100 |
| CCOP(=O)(OCC)C(c1ccc(F)cc1)N(C(=O)NC(F)(F)F)c1ccc(OC)cc1 (stereo unspecified) | > 100 | > 100 | > 100 | > 100 | > 100 | > 100 | > 100 | > 100 | – | > 100 |
| O=[N+]([O-])c1ccc(Oc2c(Cl)cc(S(=O)(=O)/N=C(\NO)Nc3ccc(Cl)cc3)cc2Cl)cc1 | 32.7 | 25.6 | 24.8 | 27.3 | – | 36.7 | 17.2 | 24.9 | 24.1 | 25.8 |
| COc1ccc(NC(=O)CC(=O)N2N=C(N3c4ccccc4Sc4ccccc43)CC2c2ccccc2)cc1 (stereo unspecified) | > 100 | > 100 | > 100 | > 100 | > 100 | 96.9 | > 100 | – | > 100 | > 100 |
| Cc1ccc(S(=O)(=O)N/N=C/C2(c3ccccc3)c3ccccc3-c3ccccc32)cc1 | 32.1 | 23.3 | 18.2 | 16.1 | – | 39.3 | > 100 | 26.1 | 25.9 | 25.1 |
| Cc1ccc2c(c1)C(=O)C1(Cc3ccccc3C1=O)C2 (stereo unspecified) | > 100 | > 100 | > 100 | > 100 | > 100 | > 100 | > 100 | > 100 | – | > 100 |

Reference: PubChem BioAssay (NCI)
